Assay results as given in patent publication US8329686B2, “Isatin analogues and uses therefor” (Washington University, priority 2006, dated 2012).
Where two headings read alike, the source gives them in different places. One block for each molecule: values may come before it. Residues, ends and D or L forms follow the SMILES beside them.

What was measured:
Format in all cases: biochemical
caspase 8 = molecular target: T1, caspase 8 (Homo sapiens, UniProt Q14790); assay: Enzyme inhibition assay, caspase 8 (fluorogenic Ac-IETD-AMC)
T1 construct: purchased Sigma-Aldrich (St. Louis, Mo.)

caspase 7 = molecular target: T2, caspase 7 (Homo sapiens, UniProt P55210); assay: Enzyme inhibition assay, caspase 7 (fluorogenic Ac-DEVD-AMC)
T2 construct: purchased Sigma-Aldrich (St. Louis, Mo.)
T2 sequence (P55210 24-198 limits assumed): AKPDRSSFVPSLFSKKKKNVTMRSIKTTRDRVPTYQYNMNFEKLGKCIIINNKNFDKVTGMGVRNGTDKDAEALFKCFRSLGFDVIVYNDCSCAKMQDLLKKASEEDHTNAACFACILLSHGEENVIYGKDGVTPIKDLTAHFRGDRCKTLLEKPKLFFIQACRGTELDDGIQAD
T2 sequence (P55210 207-303 limits assumed): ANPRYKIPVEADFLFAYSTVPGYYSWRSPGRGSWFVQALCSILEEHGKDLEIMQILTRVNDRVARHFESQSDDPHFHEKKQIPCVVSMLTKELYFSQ

caspase 1 = molecular target: T3, caspase 1 (Homo sapiens, UniProt P29466); assay: Enzyme inhibition assay, caspase 1 (fluorogenic Ac-YVAD-AMC)
T3 construct: purchased BIOMOL Research Laboratories (Plymouth Meeting, Pa.)
T3 sequence (P29466 120-297 limits assumed): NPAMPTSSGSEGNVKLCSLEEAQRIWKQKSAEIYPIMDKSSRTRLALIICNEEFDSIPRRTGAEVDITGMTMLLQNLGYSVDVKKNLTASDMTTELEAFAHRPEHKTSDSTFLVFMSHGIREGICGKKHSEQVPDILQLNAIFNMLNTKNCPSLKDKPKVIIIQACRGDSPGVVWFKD
T3 sequence (P29466 317-404 limits assumed): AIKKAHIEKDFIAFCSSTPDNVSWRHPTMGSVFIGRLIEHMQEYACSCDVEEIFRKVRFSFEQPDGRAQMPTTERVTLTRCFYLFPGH

caspase-3 = molecular target: T4, caspase-3 (Homo sapiens, UniProt P42574); assay: Enzyme inhibition assay, caspase 3 (fluorogenic Ac-DEVD-AMC)
T4 construct: purchased Sigma-Aldrich (St. Louis, Mo.)
T4 sequence (P42574 29-175 limits assumed): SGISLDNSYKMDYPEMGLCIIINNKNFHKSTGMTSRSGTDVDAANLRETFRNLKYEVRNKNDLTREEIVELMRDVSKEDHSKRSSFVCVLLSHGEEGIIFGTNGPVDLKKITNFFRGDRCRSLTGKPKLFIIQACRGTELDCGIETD
T4 sequence (P42574 176-277 limits assumed): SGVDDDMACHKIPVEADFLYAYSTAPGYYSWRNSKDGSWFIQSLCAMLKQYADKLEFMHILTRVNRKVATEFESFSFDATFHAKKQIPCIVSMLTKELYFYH

caspase 6 = molecular target: T5, caspase 6 (Homo sapiens, UniProt P55212); assay: Enzyme inhibition assay, caspase 6 (fluorogenic Ac-VEID-AMC)
T5 construct: purchased Sigma-Aldrich (St. Louis, Mo.)
T5 sequence (P55212 24-179 limits assumed): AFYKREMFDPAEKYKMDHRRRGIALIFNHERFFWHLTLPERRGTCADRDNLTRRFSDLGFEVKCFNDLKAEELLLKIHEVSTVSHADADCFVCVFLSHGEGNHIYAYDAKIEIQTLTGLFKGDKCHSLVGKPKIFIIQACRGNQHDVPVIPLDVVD
T5 sequence (P55212 194-293 limits assumed): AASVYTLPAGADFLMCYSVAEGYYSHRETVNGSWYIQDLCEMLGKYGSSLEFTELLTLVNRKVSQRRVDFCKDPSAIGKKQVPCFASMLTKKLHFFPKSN

[1] = Table 2, read-out: IC50 (nM) Caspase 8
[2] = Table 7, read-out: IC50 (nM) Casp-8
[3] = Table 2, read-out: IC50 (nM) Caspase 7
[4] = Table 2, read-out: IC50 (nM) Caspase 1
[5] = Table 1, read-out: IC50 (nM) Caspase 1
[6] = Table 1, read-out: IC50 (nM) Caspase 8
[7] = Table 4, read-out: IC50 (nM) caspase-7
[8] = Table 4, read-out: IC50 (nM) caspase-3

T1 sequence (Q14790 217-374 limits assumed): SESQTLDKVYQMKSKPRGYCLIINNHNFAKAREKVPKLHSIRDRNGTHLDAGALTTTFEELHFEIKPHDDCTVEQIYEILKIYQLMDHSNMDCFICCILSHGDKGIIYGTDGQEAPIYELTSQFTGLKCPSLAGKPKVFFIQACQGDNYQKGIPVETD
T1 sequence (Q14790 385-479 limits assumed): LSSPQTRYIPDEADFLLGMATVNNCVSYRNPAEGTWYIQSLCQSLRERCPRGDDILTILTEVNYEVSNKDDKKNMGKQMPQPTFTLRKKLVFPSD

SMILES: N#CC(C#N)=C1C(=O)Nc2ccc(S(=O)(=O)N3CCCC3COc3ccccc3)cc21 (stereo not drawn) [Compound 26, 2-[2-Oxo-5-(2-phenoxymethyl-pyrrolidine-1-sulfonyl)-1,2-dihydro-indol-3-yl-idene]-malononitrile]
IC50 (caspase 8; [1]): > 50000 nM | IC50 (caspase 8; [2]): > 50000 nM | IC50 (caspase 7; [3]): 1580 nM | IC50 (caspase 7; Table 7, read-out: IC50 (nM) Casp-7): 1580 ± 163 nM | IC50 (caspase 7; read-out: IC50 for caspase-7): 1580 nM | IC50 (caspase 1; [4]): 1830 nM | IC50 (caspase 1; Table 7, read-out: IC50 (nM) Casp-1): 1830 ± 128 nM | IC50 (caspase-3; Table 2, read-out: IC50 (nM) Caspase 3): 272 ± 25 nM | IC50 (caspase-3; Table 7, read-out: IC50 (nM) Casp-3): 272 ± 24.7 nM | IC50 (caspase-3; read-out: IC50 for caspase-3): 272 nM | IC50 (caspase 6; Table 2, read-out: IC50 (nM) Caspase 6): 407 ± 15 nM | IC50 (caspase 6; Table 7, read-out: IC50 (nM) Casp-6): 407 ± 15 nM

SMILES: CC(=O)N[C@@H](Cc1ccc(O)cc1)C(=O)N[C@H](C(=O)N[C@@H](C)C(=O)N[C@H](C=O)CC(=O)O)C(C)C [Ac-YVAD-CHO, reference compound]
IC50 (caspase 1; [5]): 8.1 ± 2.1 nM | IC50 (caspase 1; [4]): 8.1 ± 2.1 nM

SMILES: CC[C@H](C)[C@H](NC(C)=O)C(=O)N[C@@H](CCC(=O)O)C(=O)N[C@H](C(=O)N[C@H](C=O)CC(=O)O)[C@@H](C)O [Ac-IETD-CHO, reference compound] (Ac-IETD-aldehyde)
IC50 (caspase 8; [6]): 4.7 ± 0.9 nM | IC50 (caspase 8; [1]): 4 ± 0.1 nM

SMILES: O=C1Nc2ccc(S(=O)(=O)N3CCCC3COc3cccnc3)cc2C1=O (stereo not drawn) [Compound 20, 5-(2-(Pyridin-3-yl-oxymethyl)-pyrrolidine-1-sulfonyl)-1H-indole-2,3-dione]
IC50 (caspase 8): > 50000 nM | IC50 (caspase 7; Table 6, read-out: IC50 (nM) caspase-7): 215 ± 49.5 nM | IC50 (caspase 1; Table 6, read-out: IC50 (nM) caspase-1): > 5000 nM | IC50 (caspase-3; Table 6, read-out: IC50 (nM) caspase-3): 58.3 ± 7.6 nM | IC50 (caspase 6; Table 6, read-out: IC50 (nM) caspase-6): > 5000 nM

SMILES: N#CC(C#N)=C1C(=O)N(Cc2ccccc2)c2ccc(S(=O)(=O)N3CCCC3COc3cccnc3)cc21 (stereo not drawn) [Compound 30a, 2-{1-Benzyl-2-oxo-5-[2-(pyridine-3-yloxymethyl)-pyrrolidine-1-sulfonyl]-1,2-dihydro-indol-3-yl-idene}-malononitrile]
IC50 (caspase 8; [1]): > 50000 nM | IC50 (caspase 8; [2]): > 50000 nM | IC50 (caspase 8; read-out: IC50 for caspase-8): > 50000 nM | IC50 (caspase 7; IC50 (nM) Casp-7, Table 7): 32.8 ± 4.9 nM | IC50 (caspase 7; IC50 (nM) Caspase 7, Table 2): 32.8 ± 4.9 nM | IC50 (caspase 7; IC50 for caspase-7): 32.8 nM | IC50 (caspase 1): 3250 nM | IC50 (caspase 1; IC50 (nM) Casp-1, Table 7): 3250 ± 450 nM | IC50 (caspase 1; read-out: IC50 for caspase-1): 2700 to 3200 nM | IC50 (caspase-3; IC50 (nM) Casp-3, Table 7): 7.6 ± 1.1 nM | IC50 (caspase-3; IC50 (nM) Caspase 3, Table 2): 7.6 ± 1.1 nM | IC50 (caspase-3; IC50 for caspase-3): 7.6 nM | IC50 (caspase 6): 823 ± 86 nM | IC50 (caspase 6; read-out: IC50 for caspase-6): 515 to 770 nM

SMILES: CC(=O)N[C@@H](CC(=O)O)C(=O)N[C@@H](CCC(=O)O)C(=O)N[C@H](C(=O)N[C@H](C=O)CC(=O)O)C(C)C [Ac-DEVD-CHO, reference compound]
IC50 (caspase 7; Table 1, read-out: IC50 (nM) Caspase 7): 8.5 ± 1 nM | IC50 (caspase 7; [3]): 8 ± 1 nM

Second part, the molecule after the results:

IC50 (caspase 7; [7]): 14.5 ± 0.9 nM | IC50 (caspase-3; [8]): 10.3 ± 1.5 nM
SMILES: O=C1C(=O)N(Cc2ccc(F)nc2)c2ccc(S(=O)(=O)N3CCC[C@H]3COc3ccccc3)cc21 [Compound 11g, (S)-1-(6-Fluoropyridin-3-yl-methyl)-5-(2-phenoxymethylpyrrolidine-1-sulfonyl)-1H-indole-2,3-dione]

IC50 (caspase 8; [6]): > 50000 nM | IC50 (caspase 1; [5]): > 15000 nM | IC50 (caspase-3; Table 1, read-out: IC50 (nM) Caspase 3): 9.7 ± 1.3 nM | IC50 (caspase 6; Table 1, read-out: IC50 (nM) Caspase 6): 3720 nM
SMILES: O=C1C(=O)N(Cc2ccc(OCCF)cc2)c2ccc(S(=O)(=O)N3CCCC3COc3ccccc3)cc21 (stereo not drawn) [WC-II-89, 1-[4-(2-Fluoroethoxy)-benzyl]-5-(2-phenoxymethyl-pyrrolidine-1-sulfonyl)-1H-indole-2,3-dione]

IC50 (caspase 7; [7]): 540 ± 56.6 nM | IC50 (caspase-3; [8]): 240 ± 10 nM
SMILES: O=C1Nc2ccc(S(=O)(=O)N3CCC[C@H]3COc3ccccc3)cc2C1=O [Compound 10, (S)-5-(2-Phenoxymethyl-pyrrolidine-1-sulfonyl)-1H-indole-2,3-dione]

potency as caspase-3/7 inhibitors (in words) (caspase-3; caspase-3/7): low potency
SMILES: O=C1Nc2ccc(S(=O)(=O)N3CCC[C@H]3COc3ccccc3)cc2C1=NO [WC(II)-51]

IC50 (caspase 7; [7]): 44 ± 0.1 nM | IC50 (caspase-3; [8]): 13.5 ± 2.4 nM
SMILES: O=C1C(=O)N(Cc2ccc(O)cc2)c2ccc(S(=O)(=O)N3CCC[C@H]3COc3ccccc3)cc21 [Compound 11f, (S)-1-(4-Hydroxybenzyl)-5-(2-phenoxymethyl-pyrrolidine-1-sulfonyl)-1H-indole-2,3-dione]
